According to the supplement of paper PMC10307832:

Columns and labels:
Assay in all cases: relative viability (nuclei count vs DMSO), 5 days (fraction); higher = more cells survive
[1] = compound: CN1CCN(c2ccc3nc(-c4c(N)c5c(F)cccc5[nH]c4=O)[nH]c3c2)CC1 [Dovitinib] + CCNC(=O)c1noc(-c2cc(C(C)C)c(O)cc2O)c1-c1ccc(CN2CCOCC2)cc1 [Luminespib] (partner 0.01 µM)
Summary of the method: (§1)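 Relative viability divides the nuclei count in treated wells by that in vehicle wells. Lung cancer cell lines were seeded in 1536-well plates, dosed by pin tool the next day, and fixed and stained after 5 days in one step with final 0.05% Triton X-100, 1% formaldehyde and 1 ug/ml Hoechst. Dosing was a single drug or a fixed anchor-drug dose plus five library-drug doses (not always all listed) in √10 steps, and values are medians of duplicate plates imaged at 4×.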

[2] = compound: CN1CCN(c2ccc3nc(-c4c(N)c5c(F)cccc5[nH]c4=O)[nH]c3c2)CC1 [Dovitinib] + CC(C)C[C@H](NC(=O)[C@H](Cc1ccccc1)NC(=O)c1cnccn1)B(O)O [Bortezomib] (partner 0.002 µM)
Summary of the method: as §1

[3] = compound: CN1CCN(c2ccc3nc(-c4c(N)c5c(F)cccc5[nH]c4=O)[nH]c3c2)CC1 [Dovitinib] + Cc1nc(Nc2ncc(C(=O)Nc3c(C)cccc3Cl)s2)cc(N2CCN(CCO)CC2)n1 [Dasatinib] (partner 0.075 µM)
Summary of the method: as §1

[4] = compound: CN1CCN(c2ccc3nc(-c4c(N)c5c(F)cccc5[nH]c4=O)[nH]c3c2)CC1 [Dovitinib] + CC(=O)c1c(C)c2cnc(Nc3ccc(N4CCNCC4)cn3)nc2n(C2CCCC2)c1=O [Palbociclib] (partner 0.5 µM)
Summary of the method: as §1

| Cell Line | relative viability ([1]; first compound 0.02 µM) | relative viability ([1]; first compound 0.06325 µM) | relative viability ([1]; first compound 0.2 µM) | relative viability ([1]; first compound 0.6325 µM) | relative viability ([1]; first compound 2 µM) | relative viability ([2]; first compound 0.02 µM) | relative viability ([2]; first compound 0.06325 µM) | relative viability ([2]; first compound 0.2 µM) | relative viability ([2]; first compound 0.6325 µM) | relative viability ([2]; first compound 2 µM) | relative viability ([3]; first compound 0.02 µM) | relative viability ([3]; first compound 0.06325 µM) | relative viability ([3]; first compound 0.2 µM) | relative viability ([3]; first compound 0.6325 µM) | relative viability ([3]; first compound 2 µM) | relative viability ([4]; first compound 0.02 µM) | relative viability ([4]; first compound 0.06325 µM) | relative viability ([4]; first compound 0.2 µM) | relative viability ([4]; first compound 0.6325 µM) | relative viability ([4]; first compound 2 µM) |
| --- | --- | --- | --- | --- | --- | --- | --- | --- | --- | --- | --- | --- | --- | --- | --- | --- | --- | --- | --- | --- |
| NCI-H1792 | 0.481 | 0.332 | 0.516 | 0.645 | 0.487 | 0.938 | 0.935 | 0.998 | 1.04 | 0.918 | 0.873 | 0.738 | 0.775 | 0.793 | 0.803 | 0.642 | 0.668 | 0.684 | 0.583 | 0.643 |
| NCI-H1355 | 0.716 | 0.781 | 0.829 | 0.827 | 0.68 | 1.31 | 1.19 | 1.17 | 1.2 | 1.42 | 0.678 | 0.673 | 0.723 | 0.744 | 0.771 | 0.416 | 0.41 | 0.465 | 0.397 | 0.415 |
| SW 1573 | 0.264 | 0.214 | 0.275 | 0.525 | 0.29 | 0.985 | 1.06 | 0.997 | 1.08 | 1.03 | 0.461 | 0.502 | 0.513 | 0.409 | 0.651 | 0.402 | 0.421 | 0.435 | 0.348 | 0.386 |
| NCI-H2347 | 0.426 | 0.442 | 0.661 | 0.357 | 0.255 | 1.18 | 0.935 | 0.907 | 1.43 | 1.09 | 0.317 | 0.276 | 0.322 | 0.303 | 0.33 | 0.454 | 0.446 | 0.462 | 0.474 | 0.409 |
| LCLC-97TM1 | 0.953 | 0.746 | 0.831 | 0.801 | 0.701 | 0.754 | 0.783 | 0.371 | 0.867 | 0.566 | 0.8 | 0.896 | 0.887 | 0.876 | 0.775 | 0.252 | 0.26 | 0.236 | 0.185 | 0.209 |
| EMC-BAC-2 | 1.19 | 1.13 | 1.16 | 1.05 | 0.986 | 1.05 | 0.995 | 1.08 | 1.05 | 1.04 | 0.362 | 0.284 | 0.341 | 0.299 | 0.202 | 0.551 | 0.493 | 0.539 | 0.502 | 0.518 |
| NCI-H1975 | 0.991 | 0.19 | 0.422 | 0.146 | 0.217 | 0.389 | 0.48 | 0.377 | 0.373 | 0.405 | 0.346 | 0.348 | 0.408 | 0.364 | 0.453 | 0.657 | 0.674 | 0.58 | 0.645 | 0.598 |
| BEN | 0.258 | 0.458 | 0.432 | 0.512 | 0.203 | 0.705 | 0.991 | 0.948 | 1.12 | 0.679 | 0.32 | 0.272 | 0.321 | 0.326 | 0.307 | 0.477 | 0.46 | 0.456 | 0.478 | 0.492 |
| NCI-H23 | 0.194 | 0.219 | 0.201 | 0.229 | 0.24 | 0.925 | 1.02 | 1.01 | 1.05 | 1.22 | 0.837 | 0.729 | 0.976 | 0.731 | 0.734 | 0.482 | 0.58 | 0.574 | 0.515 | 0.541 |
| NCI-H520 | 0.218 | 0.219 | 0.192 | 0.201 | 0.212 | 0.527 | 0.725 | 0.63 | 0.488 | 0.348 | 0.165 | 0.188 | 0.235 | 0.179 | 0.218 | 0.206 | 0.213 | 0.214 | 0.266 | 0.162 |
| CAL-12T | 0.297 | 0.469 | 0.495 | 0.519 | 0.219 | 1.28 | 1 | 1.1 | 0.977 | 1.05 | 0.43 | 0.486 | 0.465 | 0.49 | 0.457 | 0.563 | 0.55 | 0.406 | 0.526 | 0.589 |
| EPLC-272H | 0.235 | 0.241 | 0.386 | 0.364 | 0.236 | 0.917 | 0.949 | 0.883 | 0.875 | 0.905 | 0.351 | 0.346 | 0.36 | 0.37 | 0.31 | 0.314 | 0.331 | 0.314 | 0.336 | 0.328 |
| LCLC-103H | 0.963 | 1 | 1.01 | 0.885 | 0.922 | 1 | 1.07 | 1.01 | 0.987 | 1.13 | 0.487 | 0.503 | 0.461 | 0.374 | 0.489 | 0.482 | 0.454 | 0.496 | 0.474 | 0.462 |
| NCI-H2405 | 0.657 | 0.579 | 0.7 | 0.58 | 0.817 | 0.871 | 0.972 | 1 | 1.08 | 0.969 | 0.201 | 0.222 | 0.174 | 0.204 | 0.235 | 0.511 | 0.516 | 0.546 | 0.504 | 0.556 |
| HCC-15 | 0.233 | 0.237 | 0.238 | 0.297 | 0.303 | 1.03 | 1.07 | 1.02 | 1.05 | 1.02 | 0.673 | 0.548 | 0.664 | 0.59 | 0.561 | 0.738 | 0.708 | 0.717 | 0.694 | 0.708 |
| PC-3 [JPC-3] | 0.681 | 0.695 | 0.722 | 0.782 | 0.71 | 0.849 | 0.803 | 0.899 | 0.872 | 0.88 | 1.03 | 0.999 | 0.967 | 1 | 0.986 | 0.518 | 0.58 | 0.55 | 0.555 | 0.517 |
